Reference: patent publication US20140249084A1, “PTH-CONTAINING THERAPEUTIC/PROPHYLACTIC AGENT FOR OSTEOPOROSIS, CHARACTERIZED IN THAT PTH IS ADMINISTERED ONCE A WEEK IN A UNIT DOSE OF 100 TO 200 UNITS” (ASAHI KASEI PHARMA CORPORATION, priority 2009, published 2014)

Tests used:
[1] = test system: high-risk patients diagnosed with primary osteoporosis; assay: New vertebral fractures (incl. multiple), Working Example 2 (200 units once a week vs placebo, 72 weeks); format: in vivo, human; conditions: for New vertebral fractures: Incidence (%) / New vertebral fractures: No. of subjects: 72 weeks; for No. with fractures: new vertebral fractures
Source text: The above patients also took two tablets of a calcium agent once a day after dinner. […] The preparation contained precipitated calcium carbonate, magnesium carbonate, cholecalciferol (vitamin D3), and the like as components and is marketed under the trade name New Calcichew (trademark) D3″ (sold by: Daiichi Sankyo Health Care, manufactured and sold by: Nitto Pharmaceutical Industries, Ltd.).
The numbers of patients administered the test drug and control were 290 (also sometimes referred to as the test drug group in the working example) and 288 (also sometimes referred to as the control group in the working example), respectively. The total number administered was 578. However, the number in each group sometimes differs depending on the type of test and is expressed, for example, by (n=**) or the number evaluated, or the like.
(§1) The incidence of bone fractures was checked by frontal and lateral x-rays of the fourth thoracic to the fourth lumbar spine taken at the start and every 24 weeks thereafter.
Here, “multiple vertebral fractures” was defined as two or more new vertebral fractures. When the incidence of multiple vertebral fractures (number of cases) was compared in the test drug group (n=261) and control group (n=281) after 72 weeks of administration, it was 2.1% (6 cases) in the control group and 0.8% (2 cases) in the test drug group.

[2] = test system: patients diagnosed with primary osteoporosis; assay: Lumbar spine bone mineral density by DXA, Working Example 1 (5 or 100 units once a week); format: in vivo, human; conditions: low-risk patients, only one patient
Description: Both the 5 and 100 unit groups were administered two tablets of a calcium agent (containing 500 mg of precipitated calcium carbonate [200 mg as calcium] per tablet) once a day.
The osteoporosis patients were classified as condition shown in Table 1 based on the bone fracture risk factors present, as in Non-patent Reference 13, and compared. High-risk patients were defined as having all three factors involving age, prevalent vertebral fractures, and bone density or bone atrophy; low-risk patients were defined as other than the above.

[3] = test system: high-risk patients diagnosed with primary osteoporosis; assay: Lumbar spine bone density by DXA, Working Example 2; format: in vivo, human; conditions: 200 units once a week; for Change in bone density (%): patients taking glucocorticoid
Description: For the bone density of the lumbar spine, the density of the second to fourth lumbar spine was measured at the start and every 24 weeks thereafter using dual-energy x-ray absorptiometry (DXA).

[4] = in vivo
[5] = test system: high-risk patients diagnosed with primary osteoporosis; assay: Worsening vertebral fractures, Working Example 2; format: in vivo, human; conditions: FAS, 200 units once a week
Source text: The vertebral fractures in the present invention also include both new fractures and worsening fractures. […] New and worsening [fractures] can be classified by the grade increase pattern according to the criteria of Genant. Concretely speaking, a fracture is diagnosed as a new fracture when a change is found from grade 0 to grade 1, 2, or 3. It can be regarded as a worsening fracture when a change is found from grade 1 to grade 2 or 3 or from grade 2 to grade 3. The vertebral height was measured according to the method of Inoue et al. (Non-patent reference 35) and the method of Hayashi et al. (Non-patent Reference 36) to accurately assess the changes in grade.
as §1

[6] = No. of fractures: Five or more, 200 units once a week
[7] = No. of fractures: Four, 200 units once a week
[8] = No. of fractures: One, 200 units once a week
[9] = No. of fractures: Three, 200 units once a week
[10] = No. of fractures: Two, 200 units once a week
[11] = history of Alfacalcidol, 200 units once a week
[12] = history of Calcitriol, 200 units once a week
[13] = history of Calcium L-aspartate, 200 units once a week
[14] = history of Calcium lactate, 200 units once a week
[15] = history of Elcatonin, 200 units once a week
[16] = history of Menatetrenone, 200 units once a week
[17] = history of Raloxifene hydrochloride, 200 units once a week
[18] = patients taking glucocorticoid, 200 units once a week
[19] = two or more new vertebral fractures, after 72 weeks, 200 units once a week

Substance: teriparatide acetate
- Occurrence of new vertebral fractures after 48 weeks ([1]; 48 to 72 weeks division, 200 units once a week): no new vertebral fractures occurred after 48 weeks
- New vertebral fractures, No. with fractures ([1]; FAS, No. evaluated 261): 7
- Difference between PTH200 group and P group after 72 W (%) ([1]; FAS, incidence of new vertebral fractures after 72 W): 11.4%
- New vertebral fractures: Incidence (%) [1, 6]: 0.0%
- New vertebral fractures: No. of subjects [1, 6]: 0
- New vertebral fractures: Incidence (%) [1, 7]: 0.0%
- New vertebral fractures: No. of subjects [1, 7]: 0
- New vertebral fractures: Incidence (%) [1, 8]: 1.9%
- New vertebral fractures: No. of subjects [1, 8]: 5
- New vertebral fractures: Incidence (%) [1, 9]: 0.0%
- New vertebral fractures: No. of subjects [1, 9]: 0
- New vertebral fractures: Incidence (%) [1, 10]: 0.8%
- New vertebral fractures: No. of subjects [1, 10]: 2
- New vertebral fractures, No. with fractures ([1]; Time after administration >24 W-≦48 W, No. evaluated 219): 2
- New vertebral fractures, No. with fractures ([1]; Time after administration >48 W-≦72 W, No. evaluated 206): 0
- New vertebral fractures, No. with fractures ([1]; Time after administration ≦24 W, No. evaluated 261): 6
- Incidence of new vertebral fractures (%) ([1]; creatinine clearance at start Abnormal (<80), After 24 W, 200 units once a week): 2.8%
- Incidence of new vertebral fractures (%) ([1]; creatinine clearance at start Abnormal (<80), After 48 W, 200 units once a week): 3.4%
- Incidence of new vertebral fractures (%) ([1]; creatinine clearance at start Abnormal (<80), After 72 W, 200 units once a week): 3.4%
- Incidence of new vertebral fractures (%) ([1]; creatinine clearance at start Normal (≧80), After 24 W, 200 units once a week): 0.0%
- Incidence of new vertebral fractures (%) ([1]; creatinine clearance at start Normal (≧80), After 48 W, 200 units once a week): 0.0%
- Incidence of new vertebral fractures (%) ([1]; creatinine clearance at start Normal (≧80), After 72 W, 200 units once a week): 0.0%
- New vertebral fractures: No [1, 11]: 62
- New vertebral fractures: Yes [1, 11]: 1
- New vertebral fractures: No [1, 12]: 7
- New vertebral fractures: Yes [1, 12]: 1
- New vertebral fractures: No [1, 13]: 28
- New vertebral fractures: Yes [1, 13]: 1
- New vertebral fractures: No [1, 14]: 8
- New vertebral fractures: Yes [1, 14]: 0
- New vertebral fractures: No [1, 15]: 35
- New vertebral fractures: Yes [1, 15]: 2
- New vertebral fractures: No [1, 16]: 6
- New vertebral fractures: Yes [1, 16]: 0
- New vertebral fractures: No [1, 17]: 20
- New vertebral fractures: Yes [1, 17]: 0
- No. with fractures ([1]; Complication (diabetes): No, 200 units once a week): 7
- No. with fractures ([1]; Complication (diabetes): Yes, 200 units once a week): 0
- No. with fractures ([1]; Complication (hyperlipidemia): No, 200 units once a week): 4
- No. with fractures ([1]; Complication (hyperlipidemia): Yes, 200 units once a week): 3
- No. with fractures ([1]; Complication (hypertension): No, 200 units once a week): 3
- No. with fractures ([1]; Complication (hypertension): Yes, 200 units once a week): 4
- No. with fractures ([1]; Prior osteoporosis treatment (no), 200 units once a week): 4
- No. with fractures ([1]; Prior osteoporosis treatment (yes), 200 units once a week): 3
- No. with fractures ([1]; creatinine clearance at start Abnormal (<80), 200 units once a week): 6
- No. with fractures ([1]; creatinine clearance at start Normal (≧80), 200 units once a week): 0
- Existence of new vertebral fractures, Fracture: no [1, 18]: 29
- Existence of new vertebral fractures, Fracture: yes [1, 18]: 0
- Incidence of multiple vertebral fractures [1, 19]: 0.8%
- Multiple vertebral fractures (number of cases) [1, 19]: 2 cases
- Lumbar spine bone mineral density (% change) ([2]; After 26 W): 3.2%
- Lumbar spine bone mineral density (% change) ([2]; After 52 W): 6.1%
- Lumbar spine bone mineral density (% change) ([2]; After 78 W): 12.0%
- Lumbar spine bone mineral density (% change) ([2]; Final check): 12.0%
- Percentage change in bone density (%) ([3]; 24 W, history of Alfacalcidol): 3.11%
- Percentage change in bone density (%) ([3]; 24 W, history of Calcitriol): 3.50%
- Percentage change in bone density (%) ([3]; 24 W, history of Calcium L-aspartate): 3.78%
- Percentage change in bone density (%) ([3]; 24 W, history of Calcium lactate): 1.96%
- Percentage change in bone density (%) ([3]; 24 W, history of Elcatonin): 3.95%
- Percentage change in bone density (%) ([3]; 24 W, history of Menatetrenone): 2.70%
- Percentage change in bone density (%) ([3]; 24 W, history of Raloxifene hydrochloride): 1.77%
- Change in bone density (%) ([3]; 24 W): 3.50%
- Percentage change in bone density (%) ([3]; 48 W, history of Alfacalcidol): 5.47%
- Percentage change in bone density (%) ([3]; 48 W, history of Calcitriol): 4.40%
- Percentage change in bone density (%) ([3]; 48 W, history of Calcium L-aspartate): 6.16%
- Percentage change in bone density (%) ([3]; 48 W, history of Calcium lactate): 3.45%
- Percentage change in bone density (%) ([3]; 48 W, history of Elcatonin): 3.59%
- Percentage change in bone density (%) ([3]; 48 W, history of Menatetrenone): 3.04%
- Percentage change in bone density (%) ([3]; 48 W, history of Raloxifene hydrochloride): 4.96%
- Change in bone density (%) ([3]; 48 W): 5.97%
- Percentage change in bone density (%) ([3]; 72 W, history of Alfacalcidol): 6.47%
- Percentage change in bone density (%) ([3]; 72 W, history of Calcitriol): 6.38%
- Percentage change in bone density (%) ([3]; 72 W, history of Calcium L-aspartate): 5.85%
- Percentage change in bone density (%) ([3]; 72 W, history of Calcium lactate): 4.93%
- Percentage change in bone density (%) ([3]; 72 W, history of Elcatonin): 5.36%
- Percentage change in bone density (%) ([3]; 72 W, history of Menatetrenone): 4.32%
- Percentage change in bone density (%) ([3]; 72 W, history of Raloxifene hydrochloride): 4.59%
- Change in bone density (%) ([3]; 72 W): 6.82%
- Side effects: No, No. of cases [4]: 27
- Side effects: Yes, No. of cases [4]: 22
- Difference between test drug group and control group after 72 W (%) ([5]; incidence of worsening fractures): 1.8%
- No. with fractures ([5]; worsening fractures): 1
